Source: ChEMBL document CHEMBL1125260, “Binding of substituted and conformationally restricted derivatives of N-(3-phenyl-n-propyl)-1-phenyl-2-aminopropane at sigma-receptors” (J Med Chem, 1991)
pIC50: −log10 of the molar value.

Legend:
[1] = target: D(2) dopamine receptor (Rattus norvegicus, UniProt P61169); assay: In vitro binding affinity at Dopamine receptor D2 in rat striata using [3H]domperidone as radioligand
[2] = target: Muscarinic acetylcholine receptor; assay: In vitro binding affinity at muscarinic binding site receptors in rat brain membrane using [3H]QNB as radioligand; type: cell membranes
[3] = target: T1, Adrenergic receptor beta (Rattus norvegicus, UniProt P18090+P10608+P26255); assay: In vitro binding affinity at beta adrenergic receptor binding site receptors in rat brain membrane using [3H]dihydroalprenolol as radioligand; type: cell membranes
[4] = target: D(1A) dopamine receptor (Rattus norvegicus, UniProt P18901); assay: In vitro binding affinity at Dopamine receptor D1 using [3H]SCH-23390 as radioligand
[5] = target: Glutamate receptor ionotropic, kainate; assay: In vitro binding affinity at Ionotropic glutamate receptor ionotropic kainate in rat brain membrane using [3H]kainate as radioligand; type: cell membranes
[6] = target: T2, Glutamate receptor ionotropic, AMPA (Rattus norvegicus, UniProt P19490+P19491+P19492+P19493); assay: In vitro binding affinity at quisqualate binding site of quisqualate/AMPA glutamate receptors in rat brain membrane using [3H]- ]AMPA as radioligand; type: cell membranes
[7] = target: Muscarinic acetylcholine receptor; assay: In vitro binding affinity at Muscarinic acetylcholine receptor in rat brain membrane using [3H]QNB as radioligand; type: cell membranes
[8] = target: Glutamate receptor ionotropic, kainate; assay: In vitro binding affinity at Ionotropic glutamate receptor kainate in rat brain membrane using [3H]kainate as radioligand; type: cell membranes
[9] = target: T1, Adrenergic receptor beta; assay: In vitro binding affinity at Beta adrenergic receptor in rat brain membrane using [3H]dihydroalprenolol as radioligand; type: cell membranes
[10] = target: T2, Glutamate receptor ionotropic, AMPA; assay: In vitro binding affinity at quisqualate binding site of quisqualate/AMPA glutamate receptors in rat brain membrane using [3H]AMPA as radioligand; type: cell membranes

Sequence of D(2) dopamine receptor (P61169 whole entry): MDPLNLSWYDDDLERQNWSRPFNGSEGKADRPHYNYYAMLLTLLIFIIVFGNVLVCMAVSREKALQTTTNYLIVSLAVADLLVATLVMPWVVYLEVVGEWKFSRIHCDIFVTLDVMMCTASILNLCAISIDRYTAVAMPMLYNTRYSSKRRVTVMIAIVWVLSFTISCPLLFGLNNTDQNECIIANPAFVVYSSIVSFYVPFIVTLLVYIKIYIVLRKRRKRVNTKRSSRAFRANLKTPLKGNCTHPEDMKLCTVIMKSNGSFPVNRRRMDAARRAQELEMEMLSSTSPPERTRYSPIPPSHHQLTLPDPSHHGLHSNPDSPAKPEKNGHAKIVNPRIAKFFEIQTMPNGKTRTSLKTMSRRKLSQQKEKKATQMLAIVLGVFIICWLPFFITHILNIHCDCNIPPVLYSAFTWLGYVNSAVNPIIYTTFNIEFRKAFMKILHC
Sequence of D(1A) dopamine receptor (P18901 whole entry): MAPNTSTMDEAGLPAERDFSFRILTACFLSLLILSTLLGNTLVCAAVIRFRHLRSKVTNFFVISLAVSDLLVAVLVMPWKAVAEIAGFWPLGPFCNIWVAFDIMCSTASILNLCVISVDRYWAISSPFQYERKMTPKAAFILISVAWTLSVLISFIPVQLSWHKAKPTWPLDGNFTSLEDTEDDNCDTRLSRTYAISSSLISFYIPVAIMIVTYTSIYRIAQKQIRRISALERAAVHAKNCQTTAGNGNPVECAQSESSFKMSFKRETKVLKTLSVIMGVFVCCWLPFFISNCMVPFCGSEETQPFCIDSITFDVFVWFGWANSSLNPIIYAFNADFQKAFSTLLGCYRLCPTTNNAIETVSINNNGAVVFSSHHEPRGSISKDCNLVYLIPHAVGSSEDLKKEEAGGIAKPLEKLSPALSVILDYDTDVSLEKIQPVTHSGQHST

Row | Compound | pIC50 [1] | IC50 [2] | IC50 [3] | pIC50 [4] | pIC50 [5] | pIC50 [6] | IC50 [7] | pIC50 [8] | IC50 [9] | pIC50 [10]
1 | CC(Cc1ccc(I)cc1)NCCCc1ccccc1 (centres undefined) | 5.42 | > 10 µM | 5.57 µM | < 5.00 | < 5.00 | < 5.00 |  |  |  | 
2 | c1ccc(CCCNC2CCc3ccccc3CC2)cc1 | 5.24 |  |  | < 5.00 |  | < 5.00 | 9.5 µM | < 5.00 | > 10 µM | 
3 | CC(Cc1ccc(Cl)c(Cl)c1)NCCCc1ccccc1 (centres undefined) | 5.75 |  |  | < 5.00 |  | < 5.00 | 7.4 µM | < 5.00 | 1.24 µM | 
4 | COc1ccc(CC(C)NCCCc2ccccc2)cc1 (centres undefined) | 5.03 | > 10 µM | 4.94 µM | < 5.00 | < 5.00 |  |  |  |  | < 5.00
